Measured values as given in patent US9504676B2, “Molecules inhibiting a metabolic pathway involving the Syk protein tyrosine kinase and method for identifying said molecules” (CENTRE NATIONAL DE LA RECHERCHE SCIENTIFIQUE, priority 2008, dated 2016).

Tested on: p38 and JNK
Test: MAP kinase activation: p38 and JNK phosphorylation levels
Assay type: cell-based
Conditions: high C-13 concentration
Experimental: The association of SLP-76 with Vav and/or Nck plays a role in optimal MAP kinase activation in mast cells^27.
• 1) Chemical products and antibodies. A chemical bank of 3000 molecules (a varied subset) was acquired from ChemBridge, Inc. (San Diego, Calif.). Stocks of solutions of small molecules were prepared at a rate of 10 mM in DMSO (dimethylsulphoxide), except for C-13 (methyl 2-{5-[(3-benzyl-4-oxo-2-thioxo-1,3-thiazolidin-5-ylidene)methyl]-2-furyl}benzoate, ChemBridge ID No. 6197026) prepared in DMF (dimethylformamide). Unless specified otherwise, all the reagents were supplied by Sigma. Dinitrophenyl (DNP) hapten was acquired from Calbiochem. Sepharose GammaBind G and all the secondary antibodies were supplied by GE Health Amersham Biosciences. […] The binding of G4G11 with Syk was assessed by adding the 9E10 monoclonal antibody conjugated with HRP detecting the amino acid sequence EQKLISEEDLN of human c-myc protein located at the C-terminal end of the scFv fragment. To generate Syk mutants, targeted mutagenesis was used on GST:Syk 6-242 protein and the binding of G4G11 with the mutants was assessed in the presence of 5 μM of C-13. • 3) Cells, culture conditions and functional tests. […] The level of β-hexosaminidase released was measured 10 min later and the TNF-α titration was performed by means of a cytotoxicity test on L929 cells as described previously^10, 3 hours after stimulation. […]

SMILES: COC(=O)c1ccccc1-c1ccc(/C=C2/SC(=S)N(Cc3ccccc3)C2=O)o1 [Molecule C-13, methyl 2-{5-[(3-benzyl-4-oxo-2-thioxo-1,3-thiazolidin-5-ylidene)methyl]-2-furyl}benzoate]
- phosphorylation levels of p38 and JNK: remain normal
